Assay results reported in the NIST ThermoML archive (doi:10.1021/je100760v).

Assay: osmotic coefficient (dimensionless); mn = molality of the nth substance listed, in mol/kg
Settings: Liquid, isopiestic method

O.O=C([O-])C(=O)[O-].[K+].[K+] [potassium oxalate monohydrate] + O
Settings | osmotic coefficient
298.15 K, m1 = 0.2731 | 0.764
298.15 K, m1 = 0.3247 | 0.747
298.15 K, m1 = 0.3721 | 0.742
298.15 K, m1 = 0.4551 | 0.736
298.15 K, m1 = 0.4898 | 0.737
298.15 K, m1 = 0.5836 | 0.735
298.15 K, m1 = 0.7175 | 0.741
298.15 K, m1 = 0.8532 | 0.747
298.15 K, m1 = 0.879 | 0.746
298.15 K, m1 = 1.163 | 0.76
298.15 K, m1 = 1.224 | 0.76
298.15 K, m1 = 1.403 | 0.77
298.15 K, m1 = 1.446 | 0.771
298.15 K, m1 = 1.553 | 0.775
298.15 K, m1 = 1.631 | 0.777
298.15 K, m1 = 1.763 | 0.782
298.15 K, m1 = 1.86 | 0.789
298.15 K, m1 = 1.865 | 0.787
298.15 K, m1 = 1.961 | 0.791
298.15 K, m1 = 2.166 | 0.801
308.15 K, m1 = 0.197 | 0.768
308.15 K, m1 = 0.2519 | 0.745
308.15 K, m1 = 0.2974 | 0.737
308.15 K, m1 = 0.3637 | 0.734
308.15 K, m1 = 0.4596 | 0.726
308.15 K, m1 = 0.5269 | 0.72
308.15 K, m1 = 0.5465 | 0.719
308.15 K, m1 = 0.5956 | 0.719
308.15 K, m1 = 0.6873 | 0.722
308.15 K, m1 = 0.7481 | 0.721
308.15 K, m1 = 0.8067 | 0.719
308.15 K, m1 = 0.8889 | 0.721
308.15 K, m1 = 0.9189 | 0.724
308.15 K, m1 = 1.088 | 0.73
308.15 K, m1 = 1.269 | 0.739
308.15 K, m1 = 1.541 | 0.751
308.15 K, m1 = 1.754 | 0.768
308.15 K, m1 = 1.933 | 0.777
308.15 K, m1 = 1.991 | 0.782
308.15 K, m1 = 2.108 | 0.792
308.15 K, m1 = 2.305 | 0.804
318.15 K, m1 = 0.2751 | 0.729
318.15 K, m1 = 0.3201 | 0.725
318.15 K, m1 = 0.3228 | 0.721
318.15 K, m1 = 0.4383 | 0.709
318.15 K, m1 = 0.4892 | 0.709
318.15 K, m1 = 0.596 | 0.705
318.15 K, m1 = 0.7938 | 0.704
318.15 K, m1 = 0.8879 | 0.707
318.15 K, m1 = 1.088 | 0.715
318.15 K, m1 = 1.261 | 0.72
318.15 K, m1 = 1.296 | 0.725
318.15 K, m1 = 1.643 | 0.749
318.15 K, m1 = 1.671 | 0.748
318.15 K, m1 = 1.72 | 0.754
318.15 K, m1 = 1.738 | 0.752
318.15 K, m1 = 1.869 | 0.763
318.15 K, m1 = 2.217 | 0.78
